Measurements taken from paper PMC12298351, “Novel 3,19-(N-Phenyl-3-(4-fluorophenyl)-pyrazole) Acetal of Andrographolide Promotes Cell Cycle Arrest and Apoptosis in MDA-MB-231 Breast Cancer Cells” (Pharmaceuticals, 2025).

Assays:
HCT-116 = format: cell-based; details: HCT-116, Colon
M14 = format: cell-based; details: M14, Melanoma
OVCAR-4 = format: cell-based; details: OVCAR-4, Ovarian
TK-10 = format: cell-based; details: TK-10, Renal
[1] = DPPH radical scavenging assay; details: 25 µM test compound, 0.1 mM DPPH, acetonitrile, 30 min
Procedure: A stable free radical DPPH (2,2-Diphenyl-1-picrylhydrazyl) assay was employed to test the antioxidant activity of all the synthesized compounds. Concisely, 25 µM of the test compounds were dissolved in acetonitrile and combined with 0.1 mM of DPPH (in acetonitrile) in a 1:2 ratio (80 µL and 160 µL). Then, the mixture was left undisturbed in the dark for 30 min at room temperature. After 30 min, the absorbance of the solutions was instantly measured at 517 nm using a Varioskan Multiplate Reader (Thermo Fisher Scientific, Mumbai, India). Ascorbic acid (in acetonitrile) was used as the positive control, and andrographolide and isoandrogapholide (in acetonitrile) were used as the standards. The following equation was used to determine the DPPH radical scavenging activity:% Radical scavenging activity = (Ac − As)/Ac × 100 where Ac = the absorbance of the blank (DPPH solution), and As = the absorbance of the test samples

MOLT-4 = details: MOLT-4, Leukemia
RPMI-8226 = details: RPMI-8226, Leukemia
HCC-2998 = details: HCC-2998, Colon
HCT-15 = details: HCT-15, Colon
SF-295 = details: SF-295, CNS
SF-539 = details: SF-539, CNS
U251 = details: U251, CNS
MDA-MB-435 = details: MDA-MB-435, Melanoma
SK-MEL-2 = details: SK-MEL-2, Melanoma
UACC-62 = details: UACC-62, Melanoma
OVCAR-3 = details: OVCAR-3, Ovarian
OVCAR-8 = details: OVCAR-8, Ovarian
A498 = details: A498, Renal
RXF 393 = details: RXF 393, Renal
PC-3 = details: PC-3, Prostate
[2] = read-out: 50% lethal concentration (LC50)
[3] = read-out: 50% lethal concentration (LC50), Leukemia

C=C1CCC2C3(C)COC(c4cn(-c5ccccc5)nc4-c4cccc(Br)c4)OC3CCC2(C)C1CC=C1C(=O)OCC1O (stereo not shown) [1e]
GI50 (HCT-116): 1.24 µM
Total growth inhibition (TGI) (HCT-116): 2.75 µM
GI50 (M14): 1.86 µM
Total growth inhibition (TGI) (M14): 4.12 µM
GI50 (OVCAR-4): 2.49 µM
CC50 (OVCAR-4; [2]): > 100 µM
GI50 (TK-10): 2.12 µM
Total growth inhibition (TGI) (TK-10): 3.58 µM
CC50 (TK-10; [2]): 40.4 µM
% DPPH radical scavenging activity [1]: 58.75%
GI50 (CCRF-CEM; Leukemia): 0.7 µM
CC50 (CCRF-CEM; [3]): > 100 µM
GI50 (HL-60(TB); Leukemia): 1.17 µM
Total growth inhibition (TGI) (HL-60(TB); Leukemia): 5.17 µM
CC50 (HL-60(TB); [3]): > 100 µM
GI50 (MOLT-4): 0.91 µM
Total growth inhibition (TGI) (MOLT-4): 4.24 µM
CC50 (MOLT-4; [2]): > 100 µM
GI50 (RPMI-8226): 2.75 µM
Total growth inhibition (TGI) (RPMI-8226): > 100 µM
CC50 (RPMI-8226; [2]): > 100 µM
GI50 (SR; Leukemia): 1.77 µM
CC50 (SR; [3]): > 100 µM
Total growth inhibition (TGI) (EKVX; Non-Small Cell Lung): 5.16 µM
GI50 (EKVX; Non-Small-Cell Lung): 2.1 µM
CC50 (EKVX; read-out: 50% lethal concentration (LC50), Non-Small Cell Lung): > 100 µM
Total growth inhibition (TGI) (HOP-62; HOP-62, Non-Small Cell Lung): 4.94 µM
GI50 (HOP-62; HOP-62, Non-Small-Cell Lung): 2.08 µM
CC50 (HOP-62; read-out: 50% lethal concentration (LC50), HOP-62, Non-Small Cell Lung): > 100 µM
Total growth inhibition (TGI) (NCI-H23; NCI-H23, Non-Small Cell Lung): 4.07 µM
GI50 (NCI-H23; NCI-H23, Non-Small-Cell Lung): 1.9 µM
CC50 (NCI-H23; read-out: 50% lethal concentration (LC50), NCI-H23, Non-Small Cell Lung): 8.74 µM
Total growth inhibition (TGI) (NCI-H522; NCI-H522, Non-Small Cell Lung): 2.9 µM
GI50 (NCI-H522; NCI-H522, Non-Small-Cell Lung): 1.5 µM
CC50 (NCI-H522; read-out: 50% lethal concentration (LC50), NCI-H522, Non-Small Cell Lung): 5.62 µM
GI50 (HCC-2998): 1.72 µM
Total growth inhibition (TGI) (HCC-2998): 3.33 µM
GI50 (HCT-15): 1.6 µM
Total growth inhibition (TGI) (HCT-15): 3.55 µM
CC50 (HCT-15; [2]): 7.85 µM
GI50 (SF-295): 1.36 µM
Total growth inhibition (TGI) (SF-295): 2.68 µM
CC50 (SF-295; [2]): 5.3 µM
GI50 (SF-539): 1.78 µM
Total growth inhibition (TGI) (SF-539): 3.2 µM
CC50 (SF-539; [2]): 5.74 µM
GI50 (U251): 1.69 µM
Total growth inhibition (TGI) (U251): 3.13 µM
GI50 (MDA-MB-435): 1.72 µM
Total growth inhibition (TGI) (MDA-MB-435): 3.6 µM
CC50 (MDA-MB-435; [2]): 7.51 µM
GI50 (SK-MEL-2): 1.78 µM
Total growth inhibition (TGI) (SK-MEL-2): 3.38 µM
GI50 (UACC-62): 1.68 µM
Total growth inhibition (TGI) (UACC-62): 3.4 µM
CC50 (UACC-62; [2]): 6.9 µM
GI50 (OVCAR-3): 1.69 µM
Total growth inhibition (TGI) (OVCAR-3): 3.21 µM
CC50 (OVCAR-3; [2]): 6.08 µM
GI50 (OVCAR-8): 1.76 µM
Total growth inhibition (TGI) (OVCAR-8): 4.22 µM
CC50 (OVCAR-8; [2]): > 100 µM
GI50 (A498): 4.33 µM
Total growth inhibition (TGI) (A498): 8.1 µM
CC50 (A498; [2]): 44 µM
GI50 (RXF 393): 1.18 µM
Total growth inhibition (TGI) (RXF 393): 2.93 µM
CC50 (RXF 393; [2]): 5.51 µM
GI50 (PC-3): 2.29 µM
CC50 (PC-3; [2]): > 100 µM
GI50 (T-47D; Breast): 2.29 µM
Total growth inhibition (TGI) (T-47D; Breast): 7.26 µM
CC50 (T-47D; read-out: 50% lethal concentration (LC50), Breast): > 100 µM
